Values of other authors as cited in patent US6323203A, “Composition and method for treating diabetes” (Beyer; Camille F., priority 2000, dated 2001).

What was measured:
[1] = system: nicotinic acid vasomotor and antilipolytic effect; conditions: cited from earlier work; for effect on vasomotor and antilipolytic effect of nicotinic acid: prior administration of the prostaglandin synthesis inhibitor
[2] = oral glucose tolerance test; cited from earlier work
[3] = in vivo; cited from earlier work

## CC(=O)Oc1ccccc1C(=O)O [aspirin]
[1]
  effect on vasomotor and antilipolytic effect of nicotinic acid: abolish the vasomotor, but not the antilipolytic effect of nicotinic acid

## NS(=O)(=O)c1cc2c(cc1Cl)NCNS2(=O)=O [hydrochlorothiazide]
[2]
  effect on serum glucose and insulin: increased serum glucose and insulin concentrations
[3]
  effect on potassium: kaliuresis

## COc1ccc2c(c1)c(CC(=O)O)c(C)n2C(=O)c1ccc(Cl)cc1 [indomethacin]
[1]
  effect on vasomotor and antilipolytic effect of nicotinic acid: abolish the vasomotor, but not the antilipolytic effect of nicotinic acid

## O=C(O)c1cccnc1 [nicotinic acid]
[1]; Molnar 1964
  use in diabetics: contraindicated for diabetics
[1]; in vivo
  effect on triglyceride hydrolysis to FFA and glycerol: inhibits triglyceride hydrolysis to FFA and glycerol
[1]; nicotinic acid prescribed in patient care
  cutaneous vasomotor reaction of nicotinic acid, consequence in patient care: sufficiently undesirable as to be the principal cause for lack of compliance
[1]; nicotinic acid
  effect on blush area: transiently stimulate
  effect on plasma concentrations of nonesterified fatty acids: reduce
  onset of cutaneous reaction relative to peak serum concentration: the onset preceded peak serum PZA concentrations, as is the case also for the cutaneous reactions associated with nicotinic acid
